Results taken from patent publication US10745370B2, “Farnesyl transferase inhibitors and uses thereof” (MACKAY MEMORIAL HOSPITAL, priority 2016, dated 2020).
“Also recorded” adds a separate entry of the source.

Assays:
M1 macrophages [1] = assay: Differentiation analysis, cell viability of M1 macrophages; format: cell-based, human; details: for Cell viability of M1 macrophages: LPS-induced M1 differentiation, 6 days, control 100%; for change in M1 population of macrophages compared with control: Table 4
Experimental: (§1) M1 differentiation of freshly isolated CD14^+ cells was induced by the addition of lipopolysaccharide (LPS), while M2 differentiation of freshly isolated CD14^+ cells was induced by the addition of IL-4. Then, the present compounds (e.g., Mib-5, 6, 7, 8, 9, or 10) were added at the indicated dosages. 6 days later, the population of the differentiated macrophages were then determined by cell viability analysis. The cell viability was measured by cell counting kit-8 (CCK-8, Sigma). The half maximal inhibitory concentrations (IC50) of the test compounds on macrophages or dendritic cells were calculated.

macrophages [2] = assay: Trypan blue exclusion test on macrophages; format: cell-based; details: trypan blue analysis, FIG. 2
Experimental: (§2) Mononuclear cells (MNCs) were separated from the peripheral blood of healthy donors obtained with written consent by use of Ficoll-Hypaque density centrifugation, followed by positive selection with magnetic anti-CD14 microbeads.
(§3) The isolated CD14^+ cells were cultivated in Minimum Essential Medium (MEM medium) supplemented with 10% fetal bovine serum (FBS), 100 ng/ml granulocyte-macrophage colony-stimulating factor (GM-CSF, Gentaur), and 50 ng/ml interleukin-4 (IL-4, R&D), and kept in an environment of 37° C. with 5% CO2/95% air.
(§4) To evaluate the effects of the present compound on dendritic cells, the CD14^+ cells were respectively treated with 10 μM of test compound (i.e., Mib-5, Mib-6, Mib-7, Mib-8, Mib-9, and Mib-10) on day 1. Then, on day 3, the cultured medium in each well was replenished by adding half the volume of the cultured medium containing the same treatment as indicated above. Then, on day 6, a cytokine cocktail containing IL-1, IL-6, and tumor necrosis factor-α (TNF-α) was added to induce maturation. On day 7, the differentiated dendritic cells were collected and subjected to further assays, including viability assay, morphology observation, and cell marker staining.
(§5) As to the effects of the present compound on macrophages, the CD14^+ cells were cultivated and treated as indicated above except the addition of cytokine cocktail on day 6. The macrophages were collected on day 6 and subjected to further assays, including viability assay, trypan blue exclusion test, morphology observation, cell marker staining, and phagocytotic activity analysis.
The dye exclusion test is used to determine the number of viable cells present in a cell suspension. […] In this test, the cells were first treated with a test compound (i.e., Mib-5, 6, 7, 8, 9 or 10) for a certain period of time (e.g., 72 hours), then the cells were harvested and re-suspended in suitable buffer solution. The cell suspension was then mixed with trypan blue dye and then visually examined to determine whether cells had taken up or excluded the dye. A viable cell will have a clear cytoplasm, whereas a nonviable cell will have a blue cytoplasm. The concentration required to reduce viability by 50% (IC50) after 72 hours was extrapolated from the dose-response curves by different concentrations of the test compound using a second-order polynomial regression model and analyzing with SigmaPlot Software (Systat Software Inc., San Jose, Calif.).

dendritic cells [3] = assay: Morphology of dendritic cells by Liu's staining; format: cell-based, human; details: 10 μM, seven days, FIG. 8
Experimental: as §2, §3, §4
(§6) Cells were transferred to a glass coverslide and covered with solution A (0.5 g of methylene blue and 1.7 g of Eosin yellow dissolved in 1,000 ml of ethanol). After 45 seconds, solution B (1.3 g of azure, 1.4 g of methylene blue, 23.38 g of Na2HPO4, 6.5 g of KH2PO4, dissolved in 1,000 ml of distilled water) was added in the proportion of 2 parts of B to 1 part of A. Mixed the solutions well by blowing the surface. The slide was left standing for 90 seconds and then washed off the staining solution rapidly by running water. The morphology of stained cells was then examined under microscope.
(§7) In this example, the effects of the present compounds on dendritic cells were investigated. Briefly, the dendritic cells were respectively treated with 10 μM of Mib-5, Mib-6, Mib-7, Mib-8, or Mib-10. Seven days later, the cells were harvested and subjected to analysis of morphology observation, cell viability, and/or cell marker expression.

M1 macrophages [4] = assay: Cell marker expression on M1 macrophages, flow cytometry; format: cell-based, human; details: for CD14: M1 population after treatment: Table 5; for CD80: change in M1 population: Table 6; for CD206: change in M1: Table 7; for CD206 expression on M1 macrophages: control 14.27%; for CD80 expression on M1 macrophages: control 71.34%; for CD14 expression on M1 macrophages: control 99.83%
Experimental: as §1, with “analysis.” for “analysis. The cell viability was measured by cell counting kit-8 (CCK-8, Sigma). The half maximal inhibitory concentrations (IC50) of the test compounds on macrophages or dendritic cells were calculated.”
(§8) The expression of various types of cell markers, such as CD14, CD206, and CD80 expressed on the surface of macrophages, and CD1a, CD14, CD83, and HLA-DR expressed on the dendritic cells, were respectively detected by fluorescein isothiocyanate (FITC) and phycoerythrin (PE)-conjugated monoclonal antibodies in FACS caliber flowcytometer. Monoclonal antibodies used in this examples included anti-CD14 (IgG-FITC), anti-CD206 (IgG-FITC), anti-CD80-PE, anti-CD1a-PE, anti-CD83-PE and anti-human leukocyte antigen (HLA)-DR-PE. Results were analyzed by CellQuest software.

dendritic cells [5] = assay: Cell marker expression on dendritic cells, flow cytometry; format: cell-based, human; details: 10 μM; for expression of CD1a, differentiation marker of dendritic cells: FIG. 9; for expression of CD83, maturation marker of dendritic cells: FIG. 10
Experimental: as §2, §3, §4, §8, §7

macrophages [6] = assay: Phagocytosis assay with fluorescent latex beads; format: cell-based, human; details: M1 and/or M2 populations, FIG. 6
Experimental: as §5
The phagocytic activity of macrophages was measured by using flow cytometric analysis. The green fluorescent latex beads (carboxylate-modified beads with diameter 2 μm) were suspended in PBS solution and added into macrophage culture for 2 hours with vortexa at 37° C. The macrophages were subjected to flow cytometry for measurement of fluorescent intensity

macrophages [7] = assay: Cell marker expression on macrophages (total), flow cytometry; format: cell-based, human; details: for total expressed level of CD14: FIG. 3; for level of CD206: FIG. 5; for total level of CD80: compared with the control
Experimental: as §2, §3, §4, §5, §8

macrophages [8] = assay: Morphology of macrophages (photographs, Liu's staining); format: cell-based, human; details: for morphology and adhesion of treated macrophages: 10 μM, FIG. 1 panel B; for morphology of cells by Liu's staining compared with control cells: FIG. 1 panel C
Experimental: as §2, §3, §4, §5, §6

| Compound | Cell viability of M1 macrophages (M1 macrophages [1]) [%] | change in M1 population of macrophages compared with control (M1 macrophages [1]) | cell viability / cytotoxicity toward macrophages (macrophages [2]) | dendritic cell morphology compared with control group (dendritic cells [3]) | CD14: M1 population after treatment (M1 macrophages [4]) | CD80: change in M1 population (M1 macrophages [4]) | CD206: change in M1 (M1 macrophages [4]) | CD206 expression on M1 macrophages (M1 macrophages [4]) [%] | CD80 expression on M1 macrophages (M1 macrophages [4]) [%] | CD14 expression on M1 macrophages (M1 macrophages [4]) [%] | expression of CD1a, differentiation marker of dendritic cells (dendritic cells [5]) | expression of CD83, maturation marker of dendritic cells (dendritic cells [5]) | phagocytic activity compared with control (macrophages [6]) | total expressed level of CD14 (macrophages [7]) | level of CD206 (macrophages [7]) | total level of CD80 (macrophages [7]) | morphology and adhesion of treated macrophages (macrophages [8]) | morphology of cells by Liu's staining compared with control cells (macrophages [8]) |
| --- | --- | --- | --- | --- | --- | --- | --- | --- | --- | --- | --- | --- | --- | --- | --- | --- | --- | --- |
| COC1=CC(=O)[C@@]2(c3cc(=O)c4ccc(OC)cc4o3)[C@H](C[C@]3(C)[C@@H](C(=O)O)CC=C4[C@H]3CCCC4(C)C)C(C)=CC[C@H]2C1=O [Mib-5] | 63.5 | significant reduction | did not adversely affect cell viability; also recorded: no significant cytotoxicity | cell death reflected in morphology changes, and less dendritic process | remained relatively unchanged | reduction | significant decrease | 5.41 | 11.94 | 97.03 | inhibited | inhibited | reduced | not affected | increase | significantly reduced | became rounded up, and were less adhesive | not significantly affected |
| COC1=CC(=O)[C@@]2(c3cc(=O)c4c(O)cc(O)cc4o3)[C@H](C[C@]3(C)[C@@H](C(=O)O)CC=C4[C@H]3CCCC4(C)C)C(C)=CC[C@H]2C1=O [Mib-7] | 82.5 | decrease | did not adversely affect cell viability; also recorded: no significant cytotoxicity | cell death reflected in morphology changes, and less dendritic process | remained relatively unchanged | reduction | significant decrease | 4.9 | 23.04 | 98.66 | inhibited | inhibited | reduced | not affected | increase | significantly reduced | became rounded up, and were less adhesive | not significantly affected |
